Measurements published in US20260125356A1, “TREATMENT OF LEISHMANIASIS” (THE UNIVERSITY OF DURHAM, priority 2022, published 2026).
≈ marks a conversion by molar mass, not a printed value. Read-outs that look alike come from different tables or passages of the source.

Columns and labels:
[1] = test system: L. major promastigotes; test: L. major promastigote dose response assay (alamarBlue/resazurin); type: cell-based; conditions: for EC50: 44 hrs + 4 hrs alamarBlue/resazurin, 26° C.
Description: Using a standard alamarBlue™ assay, activity and selectivity were assessed using L. major promastigotes and HepG2 cells, respectively.
All parasite and human cell cultures were grown and manipulated following biosafety level 2 instructions under sterile conditions. L. major FV1, L. amazonensis (MHOM/Br/75/JOSEFA), L. donovani BOB (derived from MHOM/SD/62/1S-CL2D), T. brucei (90-13, 427 strain) and T. cruzi (Dm28c) were used throughout.
All steps were carried out under sterile conditions. Frozen stocks of the relevant Leishmania promastigote species were thawed rapidly and added to Schneider's media. Promastigotes were grown at 26° C. in Nunc EasYFlask 25 cm^2 Nunclon Delta Surface (ThermoScientific) and frozen stocks were prepared on low passage cultures (p2-4) by pelleting the cells by centrifugation and resuspending in Schneider's media with 10% DMSO. The cultures were aliquoted into cryovials (Starlab) and cooled slowly to −150° C. for long term storage.
All steps were carried out under sterile conditions. […] Cycloheximide or amphotericin B were used as positive controls and 2% DMSO was used as a negative control. alamarBlue® (ThermoFisher scientific) or resazurin solution was added to each well and incubated for a further 4 hrs at 26° C. Cell-viability was determined using a BioTek™ FLx800 microplate reader with Gen5® 1.08 data analysis software (BioTek) by monitoring fluorescence emission (λex 560/λem 590 nm). Dose response curves were fitted using sigmoidal regression analysis (GraphPad Prism 8 software) and used to calculate EC50 values.

[2] = test system: L. amazonensis promastigotes; test: L. amazonensis promastigote dose response assay (alamarBlue/resazurin); type: cell-based; conditions: 44 hrs + 4 hrs alamarBlue/resazurin, 26° C., read-out: EC50 (L. amaz)/μM
[3] = Kinetic solubility; conditions: PBS, aqueous buffer, kinetic from dmso stock
From the text: All chemicals and solvents were sourced from commercial suppliers. Buffers were made up using purified water from a MilliQ® water purification system. Biorelevant buffers (FESSIF, FASSIF and FASSGF) were purchased from Biorelevant and made up according to manufacturer's instructions. 15% FBS (heat inactivated, South American origin, ThermoFisher scientific) in PBS (Fisher Scientific) was filter sterilised (0.22 μm Fisherbrand™ Sterile PES Syringe Filter, Fisher Scientific) before use. Sodium taurocholate was purchased from Merck.
λmax was determined for each compound from the UV-Vis absorption spectrum of a 200 LIM compound solution in buffer of interest using a Varian Cary® 100 UV-Vis Spectrophotometer. A calibration curve of λmax VS concentration was obtained by serial dilution of compound from 200 μM in the buffer of interest, correcting for background buffer absorption. For each sample, a DMSO solution of compound was incubated in buffer of interest (<5% DMSO) for 2 hrs at RT. The solution was filtered (0.22 μm Fisherbrand™ Sterile PES Syringe Filter, Fisher Scientific) or centrifuged (14,500 rpm, 10 min) to remove undissolved debris and the supernatant was removed and diluted as required. The corrected UV absorption of the supernatant at Amax Was measured using a Varian Cary® 100 UV-Vis Spectrophotometer and compared to the calibration curve to determine compound solubility.

Row | Compound | EC50 [1] | EC50 ([1]; Leishmania major, 48 h) | EC50 ([2]; Leishmania amazonensis, 48 h) | also measured
1 | O=C(NC1CCCC1C(=O)O)c1ccc([N+](=O)[O-])s1 (racemic) [Compound 24, ±anti 2-(5′-nitrothiophene-2′-amido)cyclopentane-1-carboxylic acid] | > 100 µM |  |  | EC50 [2]: > 100 µM
2 | O=C(c1ccc([N+](=O)[O-])s1)N1CCCc2ccccc21 [Compound 49, 1-(5′-nitrothiophene-2′-carbonyl)-1,2,3,4-tetrahydroquinoline] |  | 11.1 ± 0.3 µM |  | solubility at 2 h [3]: 151 ± 3 µM (≈ 43.5 µg/mL)
3 | CNC(=O)c1ccsc1NC(=O)c1nccs1 [Compound 11, N-[3-(methylcarbamoyl)thiophen-2-yl]-1′,3′-thiazole-2′-carboxamide] |  | 78 ± 2 µM | > 100 µM | 
4 | CNC(=O)c1ccsc1N(C)C(=O)c1ccc([N+](=O)[O-])s1 [Compound 48, N-methyl-2-(N-methyl-5′-nitrothiophene-2′-amido)thiophene-3-carboxamide] |  | 9.6 ± 0.7 µM |  | solubility at 2 h [3]: 190 ± 20 µM (≈ 61.8 µg/mL)
5 | NC(=O)c1ccccc1CNC(=O)c1ccc([N+](=O)[O-])s1 [Compound 47, N-(2-carbamoylbenzyl)-5′-nitrothiophene-2′-carboxamide] |  | 21 ± 3 µM |  | solubility at 2 h [3]: 179 ± 8 µM (≈ 54.7 µg/mL)
6 | CC(C)NC(=O)c1ccccc1NC(=O)c1ccc([N+](=O)[O-])s1 [Compound 38, 5′-nitro-N-{[(propan-2-yl)carbamoyl]-2-phenyl}thiophene-2′-carboxamide] | 4 µM |  |  | 
7 | O=C(N[C@H]1CCC[C@H]1C(=O)O)c1ccc([N+](=O)[O-])s1 (racemic) [Compound 23, ±syn 2-(5′-nitrothiophene-2′-amido)cyclopentane-1-carboxylic acid] | > 100 µM |  |  | EC50 [2]: 52 µM
8 | CNC(=O)c1ccsc1NC(=O)c1ccncc1 [Compound 14, N-[3-(methylcarbamoyl)thiophen-2-yl]pyridine-4′-carboxamide] |  | 82 ± 1 µM | 45 ± 5 µM | 
9 | CNC(=O)c1ccsc1NC(=O)c1cccnc1 [Compound 15, N-[3-(methylcarbamoyl)thiophen-2-yl]pyridine-3′-carboxamide] |  | 82 ± 7 µM | 59 ± 2 µM | 
10 | CNC(=O)c1ccsc1NC(=O)c1cccc([N+](=O)[O-])c1 [Compound 18, N-methyl-2-(3′-nitrobenzamido)thiophene-3-carboxamide] |  | > 100 µM | > 100 µM | 
11 | CCCCCCCCCCCCCNC(=O)c1ccccc1NC(=O)c1ccc([N+](=O)[O-])s1 [Compound 39, 5′-nitro-N-[2-(tridecylcarbamoyl)phenyl]thiophene-2′-carboxamide] | > 100 µM |  |  | 
12 | CNC(=O)c1ccsc1NC(=O)c1ccc([N+](=O)[O-])cc1C(F)(F)F [Compound 20, N-methyl-2-[4′-nitro-2′-(trifluoromethyl)benzamido]thiophene-3-carboxamide] |  | 16.6 ± 0.2 µM | 38.7 µM | improvement in antileishmanial activity compared to 19 ([1]; Table 2): > 3 fold
13 | CNC(=O)c1ccsc1NC(=O)c1cncs1 [Compound 12, N-[3-(methylcarbamoyl)thiophen-2-yl]-1′,3′-thiazole-5′-carboxamide] |  | 88 ± 6 µM | 53 ± 3 µM | 
14 | CNC(=O)c1ccsc1NC(=O)c1ccc2nonc2c1 [Compound 16, N-[3-(methylcarbamoyl)thiophen-2-yl]-2,1,3-benzoxadiazole-5′-carboxamide] |  | > 100 µM | > 100 µM | 
15 | CNC(=O)c1ccsc1NC(=O)c1cnc(Cl)s1 [Compound 9, N-[3-(methylcarbamoyl)thiophen-2-yl]-2′-chloro-1′,3′-thiazole-5′-carboxamide] |  | 33 ± 10 µM |  | 
16 | CNC(=O)c1cccc(Nc2ccc([N+](=O)[O-])s2)c1 [Compound 34, N-methyl-3-[(5′-nitrothiophen-2′-yl)amino]benzamide] | 3.5 µM |  |  | EC50 [2]: 0.26 µM
17 | 5′-bromo-N-[3-(methylcarbamoyl)thiophen-2-yl]thiophene-2′-carboxamide [Compound 7] | > 100 µM |  |  | EC50 [2]: > 100 µM
18 | CC(=O)c1ccccc1NC(=O)c1ccc([N+](=O)[O-])s1 [Compound 32, N-(2-acetylphenyl)-5′-nitrothiophene-2′-carboxamide] | 16 µM |  |  | 
19 | COc1cccc(NC(=O)c2ccc([N+](=O)[O-])s2)c1 [Compound 35, N-(3-methoxyphenyl)-5′-nitrothiophene-2′-carboxamide] | 3.9 µM |  |  | 

Row | Compound | EC50 [1] | EC50 ([1]; Leishmania major, 48 h) | EC50 ([2]; Leishmania amazonensis, 48 h) | also measured
20 | O=C(Nc1ccccc1C(=O)O)c1ccc([N+](=O)[O-])s1 [Compound 29, 2-(5′-nitrothiophene-2′-amido)benzoic acid] |  | 46 µM |  | 
21 | O=C(Nc1ccccc1C(F)(F)F)c1ccc([N+](=O)[O-])s1 [Compound 31, 5′-nitro-N-[2-(trifluoromethyl)phenyl]thiophene-2′-carboxamide] | 8.3 µM |  |  | EC50 [2]: 4.24 µM
22 | CCOC(=O)C1=C(NC(=O)c2ccc([N+](=O)[O-])s2)CCC1 [Compound 26, Ethyl 2-(5′-nitrothiophene-2′-amido)cyclopent-1-ene-1-carboxylate] |  | 0.46 µM | 0.72 µM | 
23 | CNC(=O)c1ccsc1NC(=O)c1cccs1 [Compound 6, N-methyl-2-(thiophene-2′-amido)thiophene-3-carboxamide] |  | > 100 µM | > 100 µM | 
24 | CCOC(=O)C1CCCC1NC(=O)c1ccc([N+](=O)[O-])s1 (stereo not drawn) [Compound 22, anti-ethyl-2-(5′-nitrothiophene-2′-amido)cyclopentane-1-carboxylate] | 10 µM |  |  | EC50 [2]: 13 µM
25 | CNC(=O)c1cc(OC)ccc1NC(=O)c1ccc([N+](=O)[O-])s1 [Compound 41, N-[4-methoxy-2-(methylcarbamoyl)phenyl]-5′-nitrothiophene-2′-carboxamide] | 16 µM |  |  | 
26 | CNC(=O)c1ccsc1NC(=O)c1ccc([N+](=O)[O-])cc1 [Compound 19, N-methyl 2-(4′-nitrobenzamido)thiophene-3-carboxamide] |  | > 100 µM | > 100 µM | 
27 | O=c1oc(-c2ccc([N+](=O)[O-])s2)nc2ccccc12 [Compound 57, 2-(5′-nitrothiophen-2′-yl)-4H-3,1-benzoxazin-4-one] |  | 38 µM |  | 
28 | COc1ccccc1NC(=O)c1ccc([N+](=O)[O-])s1 [Compound 30, N-(2-methoxyphenyl)-5′-nitrothiophene-2′-carboxamide] | 6.3 µM |  |  | 
29 | COc1ccc(NC(=O)c2ccc([N+](=O)[O-])s2)cc1 [Compound 36, N-(4-methoxyphenyl)-5′-nitrothiophene-2′-carboxamide] | 3.45 µM |  |  | 
30 | CNC(=O)c1ccsc1NC(=O)c1cscn1 [Compound 13, N-[3-(methylcarbamoyl)thiophen-2-yl]-1′,3′-thiazole-4′-carboxamide] |  | > 100 µM | 93 ± 7 µM | 
31 | 5′-amino-N-[3-(methylcarbamoyl)thiophen-2′-yl]thiophene-2-carboxamide [Compound 8] | > 100 µM |  |  | 
32 | CN(C)C(=O)c1ccccc1NC(=O)c1ccc([N+](=O)[O-])s1 [Compound 56, N-[2-(dimethylcarbamoyl)phenyl]-5′-nitrothiophene-2′-carboxamide] |  | 17 µM | 6.3 µM | 
33 | CNC(=O)c1cc(C)ccc1NC(=O)c1ccc([N+](=O)[O-])s1 [Compound 42, N-[4-methyl-2-(methylcarbamoyl)phenyl]-5′-nitrothiophene-2′-carboxamide] | 2.7 µM |  |  | 
34 | CNC(=O)c1ccsc1NC(=O)c1ccccc1 [Compound 10, 2-benzamido-N-methylthiophene-3-carboxamide] |  | 75 ± 5 µM | 55 ± 5 µM | 
35 | O=C(Nc1cccc(C(F)(F)F)c1)c1ccc([N+](=O)[O-])s1 [Compound 37, 5′-nitro-N-[3-(trifluoromethyl)phenyl]thiophene-2′-carboxamide] | 3.5 µM |  |  | EC50 [2]: 2.22 µM
36 | CNC(=O)c1c(C)cccc1NC(=O)c1ccc([N+](=O)[O-])s1 [Compound 40, N-[3-methyl-2-(methylcarbamoyl)phenyl]-5′-nitrothiophene-2′-carboxamide] | 8.5 µM |  |  | 
37 | CCOC(=O)C1CCCC1NC(=O)c1ccc([N+](=O)[O-])s1 (stereo not drawn) [Compound 21, syn-ethyl-2-(5′-nitrothiophene-2′-amido)cyclopentane-1-carboxylate] | 22 µM |  |  | EC50 [2]: 9.7 µM
